From ChEMBL document CHEMBL4706632, “Development of Potential Antitumor Agents from the Scaffolds of Plant-Derived Terpenoid Lactones” (J Med Chem, 2020)
pIC50: −log10 of the molar value. Each block holds one compound with its values, some of them ahead of it.

Legend:
[1] = Antiproliferative activity against human U87-MG cells incubated for 72 hrs by Sulforhodamine B assay; format: functional, cell-based; conditions: U-87 MG
A-431 = assay: Antiproliferative activity against human A-431 cells incubated for 72 hrs by Sulforhodamine B assay; format: functional, cell-based; conditions: A-431, 72 h
A549 = assay: Antiproliferative activity against human A549 cells incubated for 72 hrs by Sulforhodamine B assay; format: functional, cell-based; conditions: A549, 72 h
MDA-MB-231 [2] = assay: Cytotoxicity against human MDA-MB-231 cells incubated for 72 hrs by MTT assay; format: functional, cell-based; conditions: MDA-MB-231, 72 h
MCF7 [3] = assay: Cytotoxicity against human MCF-7 cells incubated for 72 hrs by MTT assay; format: functional, cell-based; conditions: MCF7, 72 h
PANC-1 = assay: Cytotoxicity against human Panc-1 cells incubated for 48 hrs by MTT assay; format: functional, cell-based; conditions: PANC-1, 48 h
HepG2 = assay: Cytotoxicity against human HepG2 cells incubated for 48 hrs by MTT assay; format: functional, cell-based; conditions: HepG2, 48 h
MDA-MB-231 [4] = assay: Cytotoxicity against human MDA-MB-231 cells incubated for 48 hrs by MTT assay; format: functional, cell-based; conditions: MDA-MB-231, 48 h
AGS = assay: Cytotoxicity against human AGS cells incubated for 48 hrs by MTT assay; format: functional, cell-based
P388 = assay: Antiproliferative activity against mouse P388 cells; format: functional, cell-based
HeLa = assay: Cytotoxicity against human HeLa cells incubated for 48 hrs by MTT assay; format: functional, cell-based
WM 266-4 = assay: Cytotoxicity against human WM 266-4 cells incubated for 72 hrs by ATPlite assay; format: functional, cell-based; conditions: WM 266-4, 72 h
HCT-116 [5] = assay: Cytotoxicity against human HCT116 cells incubated for 72 hrs by ATPlite assay; format: functional, cell-based; conditions: HCT-116, 72 h
HCT-116 [6] = assay: Antiproliferative activity against human HCT-116 cells incubated for 72 hrs by WST-1 assay; format: functional, cell-based; conditions: HCT-116, 72 h
MCF7 [7] = assay: Antiproliferative activity against human MCF7 cells incubated for 48 hrs by [3H]-thymidine incorporation assay; format: functional, cell-based
MDA-MB-435 = assay: Antiproliferative activity against human MDA-MB-435 cells incubated for 48 hrs by [3H]-thymidine incorporation assay; format: functional, cell-based
[8] = Inhibition of PAFR in New Zealand rabbit platelets assessed as reduction in PAF-induced platelet aggregation measured within 5 mins by aggregometry analysis; format: tissue-based; conditions: Oryctolagus cuniculus

SMILES: COC(=O)[C@@]12OC[C@]34[C@H]([C@@H](O)[C@@H]1O)[C@@]1(C)C=C(O[C@@H]5O[C@H](CO)[C@@H](O)[C@H](O)[C@H]5O)C(=O)[C@@H](C)[C@@H]1C[C@H]3OC(=O)[C@H](OC(=O)C=C(C)C)[C@@H]24 [BRUCEOSIDE A]
pIC50 (MDA-MB-231 [2]): < 4.30
pIC50 (MCF7 [3]): < 4.30

SMILES: CC(C)[C@H]1OC(=O)C=C2C1=C[C@H]1OC(=O)[C@@]3(C)CCC[C@@]2(C)[C@@H]13 [NAGILACTONE F]
pIC50 (PANC-1): 4.72
pIC50 (HepG2): 5.89
pIC50 (MDA-MB-231 [4]): 6.00
pIC50 (AGS): 6.30
pIC50 (P388): 6.55
pIC50 (HeLa): 6.14

SMILES: C=C1[C@@H](O)C[C@H]2C(C)(C)[C@@H](Cl)[C@H](Cl)C[C@]2(C)[C@H]1C[C@H](O)[C@H]1CC(=O)NC1=O [DICHLOROLISSOCLIMIDE]
pIC50 (P388): 8.70

SMILES: C/C(=C\[C@@H]1OC(=O)[C@H]([C@@H]2CC[C@]34C[C@]23C=C[C@@H]2[C@@]3(C)CC=C5C[C@@H](c6ccccc6)OC[C@]5(C)[C@@H]3C[C@@H](O)[C@]24C)[C@H]1O)CO
pIC50 (WM 266-4): 6.47
pIC50 (HCT-116 [5]): 7.09

SMILES: CC(C)c1oc(=O)cc2c1[C@@H](O)[C@H]1OC(=O)[C@@]3(C)[C@@H](O)[C@H]4O[C@H]4[C@@]2(C)[C@@H]13 [NAGILACTONE C]
pIC50 (PANC-1): < 4.40
pIC50 (HepG2): 4.85
pIC50 (MDA-MB-231 [4]): 5.30
pIC50 (AGS): 5.64
pIC50 (HeLa): 5.48

SMILES: C=C[C@H]1OC(=O)C=C2[C@]3(C)[C@H]4[C@H](OC(=O)[C@@]4(C)[C@@H](O)[C@H]4O[C@H]43)[C@H]3O[C@@]231
pIC50 (PANC-1): 5.07
pIC50 (HepG2): 5.46
pIC50 (MDA-MB-231 [4]): 6.18
pIC50 (AGS): 6.26
pIC50 (HeLa): 6.21

SMILES: COC(=O)[C@@]12OC[C@]34[C@H]([C@@H](O)[C@@H]1O)[C@@]1(C)CC(=O)C(O)=C(C)[C@@H]1C[C@H]3OC(=O)[C@H](OC(=O)/C=C(\C)C(C)(C)OC(C)=O)[C@@H]24
pIC50 (MDA-MB-231 [2]): 7.06
pIC50 (MCF7 [3]): 7.20
pIC50 (HCT-116 [6]): 7.30

SMILES: CC(C)[C@H]1OC(=O)C=C2C1=C[C@H]1OC(=O)[C@@]3(C)C[C@@H](O)C[C@@]2(C)[C@@H]13
pIC50 (PANC-1): 5.51
pIC50 (HepG2): 5.43
pIC50 (MDA-MB-231 [4]): 5.96
pIC50 (AGS): 6.43
pIC50 (HeLa): 6.05

SMILES: CC(=O)O[C@@]1(C)COC2(C1)OC(=O)[C@H]([C@@H]1CC[C@]34C[C@]13C=C[C@@H]1[C@@]3(C)CC=C5C[C@@H](Cc6ccccc6)OC[C@]5(C)[C@@H]3CC(=O)[C@]14C)[C@H]2O (some centres not stated)
pIC50 (WM 266-4): 6.64
pIC50 (HCT-116 [5]): 7.24

SMILES: CC(O)(CO)[C@H]1C[C@H](O)[C@@H]([C@@H]2CC=C3[C@]4(C)[C@H](O)C[C@@H]5[C@](C)(CC=C6C[C@@H](Cc7ccccc7)OC[C@@]65C)[C@H]4CC[C@]32C)[C@@H](O)O1 (some centres not stated)
pIC50 (WM 266-4): 4.51
pIC50 (HCT-116 [5]): 5.38

SMILES: C[C@@]12C3=CC(=O)O[C@H]([C@H](O)CO)[C@]34O[C@@H]4[C@H]3OC(=O)[C@](C)([C@H]31)[C@@H](O)[C@H]1O[C@H]12
pIC50 (PANC-1): < 4.40
pIC50 (HepG2): < 4.40
pIC50 (MDA-MB-231 [4]): < 4.40
pIC50 (AGS): < 4.40
pIC50 (HeLa): < 4.40

SMILES: C[C@]1(O)COC2(C[C@@H]([C@@H]3CC[C@]45C[C@]34C=C[C@@H]3[C@@]4(C)CC=C6C[C@@H](Cc7ccccc7)OC[C@]6(C)[C@@H]4C[C@@H](O)[C@]35C)C(=O)O2)C1 (some centres not stated)
pIC50 (WM 266-4): 5.89
pIC50 (HCT-116 [5]): 6.35

SMILES: CC(=O)O[C@@]1(C)COC2(C1)OC(=O)[C@H]([C@@H]1CC[C@]34C[C@]13C=C[C@@H]1[C@@]3(C)CC=C5C[C@@H](Cc6ccccc6)OC[C@]5(C)[C@@H]3[C@@H](O)C(=O)[C@]14C)[C@H]2O (some centres not stated)
pIC50 (WM 266-4): 7.11
pIC50 (HCT-116 [5]): 8.00

SMILES: C[C@@H](O)[C@H]1OC(=O)C=C2[C@]3(C)[C@H]4[C@H](OC(=O)[C@@]4(C)[C@@H](O)[C@H]4O[C@H]43)[C@H]3O[C@@]231
pIC50 (PANC-1): 4.80
pIC50 (HepG2): 4.96
pIC50 (MDA-MB-231 [4]): 5.52
pIC50 (AGS): 5.89
pIC50 (HeLa): 5.74

SMILES: C/C(C=O)=C\[C@H]1C[C@@H]([C@@H]2CC[C@]34C[C@]23C=C[C@@H]2[C@@]3(C)CC=C5C[C@@H](c6ccccc6)OC[C@]5(C)[C@@H]3C[C@@H](O)[C@]24C)C(=O)O1
pIC50 (WM 266-4): 5.82
pIC50 (HCT-116 [5]): 7.04

Second part, led by results:

pIC50 (A-431): < 4.30
pIC50 (A549): < 4.30
SMILES: C[C@H](CO[C@@H]1O[C@H](CO)[C@@H](O)[C@H](O)[C@H]1O)[C@H]1OC(=O)C=C2[C@@]13O[C@@H]3[C@H]1OC(=O)[C@@]3(C)[C@@H](O)CC[C@@]2(C)[C@@H]13
pIC50 [1]: < 4.30

pIC50 (P388): 4.24
SMILES: CC(=O)O[C@@H]1C[C@H](O)[C@@]23COC(O)[C@]1(C)[C@@H]2C[C@@H](O)[C@@]1(C)[C@@H]2C(=O)C[C@@H](c4ccoc4)[C@]2(C)CC(=O)[C@@H]13 (some centres not stated)

pIC50 (P388): 6.80
SMILES: C=C[C@H]1OC(=O)C=C2C1=C[C@H]1OC(=O)[C@@]3(C)CCC[C@@]2(C)[C@@H]13

pIC50 (HCT-116 [6]): 6.60
SMILES: COC(=O)[C@@]12OC[C@]34[C@H]([C@@H](O)[C@@H]1O)[C@@]1(C)CC(=O)C(O)=C(C)[C@@H]1C[C@H]3OC(=O)[C@H](OC(=O)/C=C(\C)C(C)(C)O)[C@@H]24

pIC50 (MCF7 [7]): 8.00
pIC50 (MDA-MB-435): 6.82
SMILES: CC1(C)OC(=O)C[C@H](O)[C@]2(C)[C@H]3CC[C@@]4(C)[C@H](c5ccoc5)OC(=O)[C@H]5O[C@]54[C@]3(C)C(=O)C[C@@H]12

pIC50 (P388): > 8.72
SMILES: CC(=O)O[C@@H]1C[C@H](O)[C@@]23COC(O)[C@]1(C)[C@@H]2C[C@@H](O)[C@]1(C)[C@@H]3C(=O)C[C@@]2(C)[C@H](c3ccoc3)C[C@H]3O[C@@]312 (some centres not stated)

pIC50 (P388): 8.40
SMILES: C=C1[C@@H](O)C[C@H]2C(C)(C)C[C@H](Cl)C[C@]2(C)[C@H]1C[C@H](O)[C@H]1CC(=O)NC1=O [CHLOROLISSOCLIMIDE]

pIC50 (A-431): 6.68
pIC50 (A549): 6.24
SMILES: CC(C)[C@H]1OC(=O)C=C2[C@@]13O[C@@H]3[C@H]1OC(=O)[C@@]3(C)C[C@@H](O)C[C@@]2(C)[C@@H]13
pIC50 (PANC-1): < 4.40
pIC50 (HepG2): 5.51
pIC50 (MDA-MB-231 [4]): < 4.40
pIC50 (AGS): 5.85
pIC50 [1]: 6.37
pIC50 (HeLa): 6.22

pIC50 (MCF7 [7]): 5.26
pIC50 (MDA-MB-435): 5.77
SMILES: CC1(C)O[C@H]2CC(=O)OC[C@@]23[C@H]1CC(=O)[C@@]1(C)C2=CC(=O)O[C@@H](c4ccoc4)[C@]2(C)CC[C@@H]13

pIC50 (A-431): 5.34
pIC50 (A549): 5.96
SMILES: C[C@H](CO)[C@H]1OC(=O)C=C2[C@@]13O[C@@H]3[C@H]1OC(=O)[C@@]3(C)[C@@H](O)CC[C@@]2(C)[C@@H]13
pIC50 [1]: 5.40

pIC50 [8]: 8.24
SMILES: Cc1ccccc1Cn1cc(CO[C@H]2C(=O)O[C@H]3O[C@]45C(=O)O[C@@H]6C[C@@H](C(C)(C)C)[C@@]32[C@@]64[C@@H](O)[C@@H]2OC(=O)[C@@H](C)[C@@]25O)nn1

pIC50 (A-431): 5.77
pIC50 (A549): 5.85
SMILES: C[C@H](CO)[C@H]1OC(=O)C=C2[C@@]13O[C@@H]3[C@H]1OC(=O)[C@@]3(C)C[C@@H](O)C[C@@]2(C)[C@@H]13
pIC50 [1]: 5.85

pIC50 (HCT-116 [6]): 7.00
SMILES: COC(=O)[C@@]12OC[C@]34[C@H]([C@@H](O)[C@@H]1O)[C@@]1(C)CC(=O)C(O)=C(C)[C@@H]1C[C@H]3OC(=O)[C@H](OC(C)=O)[C@@H]24 [BRUCEINE B]

pIC50 [8]: 7.42
SMILES: Cc1ccccc1Cn1cc(CO[C@H]2C(=O)O[C@H]3O[C@]45C(=O)O[C@@H]6[C@H](O)[C@@H](C(C)(C)C)[C@@]32[C@@]64[C@@H](O)[C@@H]2OC(=O)[C@@H](C)[C@@]25O)nn1

pIC50 (P388): 7.80
SMILES: CC(=O)OC1OC[C@@]23[C@H]4C(=O)C(OC(C)=O)[C@@]5(C)[C@H](c6ccoc6)C[C@H]6O[C@]65[C@]4(C)[C@H](O)C[C@H]2[C@]1(C)[C@H](OC(C)=O)C[C@@H]3O (some centres not stated)

pIC50 [8]: 7.15
SMILES: Cc1ccccc1Cn1cc(CO[C@H]2C(=O)O[C@H]3O[C@]45C(=O)O[C@@H]6C[C@@H](C(C)(C)C)[C@@]32[C@@]64C[C@@H]2OC(=O)[C@@H](C)[C@@]25O)nn1

pIC50 (MCF7 [7]): 7.01
pIC50 (MDA-MB-435): 6.11
SMILES: CC(=O)O[C@H]1CC(=O)OC(C)(C)[C@@H]2CC(=O)[C@]3(C)[C@H](CC[C@@]4(C)[C@H](c5ccoc5)OC(=O)[C@H]5O[C@]543)[C@@]12C
